# Reference: patent publication US9034859B2, “Sulfated oxysterol and oxysterol sulfation by hydroxysterol sulfotransferase promote lipid homeostasis and liver proliferation” (Virginia Commonwealth University, priority 2011, dated 2015)
# Experiments:
# [1] = tested on: LXR signaling pathway; assay: Western blot of LXR and its target genes and PCNA in mouse liver (Example 3); type: in vivo, C57BL/6 mice; details: 5 mg/kg i.v.
# Method: Cayman Chemical, Ann Arbor, Mich.); […] […] Metabolism. (Accepted)]. […] Cell lysates were prepared from frozen mouse liver tissues. Total proteins, 100 μg, were separated by 10% SDS-PAGE, and transferred to PVDF membrane (Millipore, Eschbom, Germany). […] Louis, Mo.) was used as a loading control. The immunoreactive bands were detected by Fujifilm Medical System (Fujifilm, Stamford, Conn.) and quantified by Advanced Image Data Analyzer (Aida Inc., Straubenhardt, Germany).
# [2] = tested on: primary rat hepatocytes (PRH); assay: Western blot in primary rat hepatocytes (Example 4); type: cell-based; details: Ad-Control-infected group, T0901317 1.5 μM or 25HC 3 μM
# Method: PRH were prepared as previously described (24). Briefly, parenchymal cells (3.5×10^6) were inoculated in 60-mm plastic Petri dishes coated with rat tail collagen. The plates contained 3 ml of Williams E culture media supplemented with thyroxine (1 μM), dexamethasone (0.1 μM), and penicillin (100 units/ml). Three hours after plating, culture medium was removed and fresh medium was added. Cells were then infected with Ad-SULT2B1b at a multiplicity (MOI) of 10 plaque forming units/cell (pfu/cell) or 100 nM of siRNA-SULT2B1b (ON-TARGET plus siRNA of rat SULT2B1b, Thermo Scientific Dharmacon, Lafayette, Colo.) as previously described (31). The Ad-Control and siRNA-Control (ON-TARGET plus negative control siRNA) were used as controls, respectively. Twenty four hours after infection, cells were treated with T0901317 (1.5 μM) or 25HC (3 μM) for another 24 hours. The cells were harvested at the timepoints as indicated in the text.
# Cell lysates were prepared from frozen mouse liver tissues or PRH, and 50 μg of the total proteins were separated by 10% SDS-PAGE, transferred to polyvinylidene difluoride membrane (Millipore, Eschbom, Germany). Specific protein was probed with specific antibodies against PCNA, human SULT2B1b (Santa Cruz Biotechnology, Santa Cruz, Calif.), LXRα (Abcam, Cambridge, Mass.), ATP-binding cassette transporters 1 (ABCA1) (Abcam, Cambridge, Mass.), and SREBP1 (Santa Cruz Biotechnology, Santa Cruz, Calif.). β-Actin (Sigma-Aldrich, St. Louis, Mo.) was used as a loading control. Western analysis was performed by methods known in the art.
smiles,measurement,setting,value
"O=S(=O)(c1ccccc1)N(CC(F)(F)F)c1ccc(C(O)(C(F)(F)F)C(F)(F)F)cc1 [T0901317, reference compound]",25HC3S-induced PCNA expression,[1]; day 2,significantly repressed
same,expressions of LXR target genes ABCA1 and SREBP-1c,"[1]; day 2, presence and absence of 25HC3S, vs vehicle",induced
same,LXR response gene expressions,[2],significantly increased
same,PCNA expression,[2],decreased
